molecular target: T1, POLγA:G848S (Homo sapiens, UniProt P54098, G848S); test: DNA polymerization assay, POLγA:G848S mutant; type: biochemical; settings: stimulation of polymerase activity, primed M13mp18 ssDNA, 37° C. 2 hours; read-out: G848S AC50
T1 sequence (P54098 1-1239 G848S): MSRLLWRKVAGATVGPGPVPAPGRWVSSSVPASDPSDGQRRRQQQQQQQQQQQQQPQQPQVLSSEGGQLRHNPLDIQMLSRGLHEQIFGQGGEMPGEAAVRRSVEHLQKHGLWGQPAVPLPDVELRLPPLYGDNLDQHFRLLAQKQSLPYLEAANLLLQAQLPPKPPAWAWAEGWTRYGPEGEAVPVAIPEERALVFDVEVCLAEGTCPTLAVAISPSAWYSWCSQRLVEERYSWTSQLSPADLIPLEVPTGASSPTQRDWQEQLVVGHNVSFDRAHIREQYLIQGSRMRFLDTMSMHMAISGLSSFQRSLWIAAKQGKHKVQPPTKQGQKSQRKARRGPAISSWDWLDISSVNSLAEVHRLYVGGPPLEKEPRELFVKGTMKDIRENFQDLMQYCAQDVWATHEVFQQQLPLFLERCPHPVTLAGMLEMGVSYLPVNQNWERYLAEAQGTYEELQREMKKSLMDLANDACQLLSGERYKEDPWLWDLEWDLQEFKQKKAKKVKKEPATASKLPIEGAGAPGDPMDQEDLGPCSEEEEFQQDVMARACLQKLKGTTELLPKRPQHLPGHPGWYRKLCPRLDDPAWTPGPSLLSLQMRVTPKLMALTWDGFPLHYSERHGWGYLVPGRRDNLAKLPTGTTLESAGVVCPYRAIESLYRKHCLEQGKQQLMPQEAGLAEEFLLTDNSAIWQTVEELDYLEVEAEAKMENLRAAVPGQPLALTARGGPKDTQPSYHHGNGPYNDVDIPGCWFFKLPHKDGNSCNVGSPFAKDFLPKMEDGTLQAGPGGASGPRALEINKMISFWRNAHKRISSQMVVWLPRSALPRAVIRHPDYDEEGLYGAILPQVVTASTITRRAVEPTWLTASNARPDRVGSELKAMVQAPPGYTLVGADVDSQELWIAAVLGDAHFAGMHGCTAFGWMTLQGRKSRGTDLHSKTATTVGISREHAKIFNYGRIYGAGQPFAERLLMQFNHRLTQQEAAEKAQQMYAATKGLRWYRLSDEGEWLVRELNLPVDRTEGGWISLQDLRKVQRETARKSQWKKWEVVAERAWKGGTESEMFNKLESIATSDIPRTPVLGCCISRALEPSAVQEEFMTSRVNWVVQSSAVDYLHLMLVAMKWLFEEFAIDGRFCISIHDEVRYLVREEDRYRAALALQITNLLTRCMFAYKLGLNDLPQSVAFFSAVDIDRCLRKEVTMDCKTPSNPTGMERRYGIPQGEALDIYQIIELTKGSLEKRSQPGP
T1 sequence (Q9UHN1 1-485 partner): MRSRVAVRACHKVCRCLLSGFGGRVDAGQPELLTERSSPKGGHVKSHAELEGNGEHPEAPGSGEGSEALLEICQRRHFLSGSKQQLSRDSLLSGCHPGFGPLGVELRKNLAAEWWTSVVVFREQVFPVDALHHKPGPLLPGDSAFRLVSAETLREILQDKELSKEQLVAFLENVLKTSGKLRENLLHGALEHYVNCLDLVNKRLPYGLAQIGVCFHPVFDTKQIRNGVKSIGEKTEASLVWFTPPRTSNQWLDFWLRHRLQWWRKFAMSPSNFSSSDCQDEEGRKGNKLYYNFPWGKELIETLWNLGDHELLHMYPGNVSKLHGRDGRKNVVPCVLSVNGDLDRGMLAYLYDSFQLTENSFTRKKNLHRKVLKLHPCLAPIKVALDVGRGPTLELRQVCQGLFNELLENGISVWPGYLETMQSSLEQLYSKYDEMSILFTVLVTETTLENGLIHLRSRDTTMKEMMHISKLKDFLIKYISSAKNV
Protocol: DNA Polymerization Assay to Monitor Effects on Human Wildtype POLγ and Four Disease-Causing Mutant Variants of Human POLγ.
The ability of small molecules to stimulate the polymerase activity of POLγ was analyzed in a quantitative fluorescence SYBR Green I assay with fluorescence intensity (FI) readout.
In the presence of dNTPs, wild type human POLγ and mutant derivatives thereof were incubated with single-stranded, circular M13mp18 ssDNA hybridized to a short DNA oligonucleotide that functions as a primer for initiation of DNA synthesis. POLγ and mutant derivatives thereof will extend the primer and use the M13mp18 molecule as a template to synthesize long stretches of double-stranded DNA. SYBR Green I, which is a double-stranded DNA-binding dye, was used to quantify formation of double-stranded DNA in the reaction. When bound to double-stranded DNA, SYBR Green I fluorescence increases by up to 100-fold.
The assay was performed in the 384-well plate format. Upon addition of compounds, changes in double-stranded DNA synthesis activity can be monitored by following effects on fluorescent intensity.
The reactions also contained the accessory POLγB subunit, and the human mitochondrial single-stranded DNA binding protein (mtSSB).
The DNA template mixture used in the assay contained 0.5 nM primed M13 mp18 ssDNA, 400 nM mtSSB, 0.1 mM Tris-HCl (pH 8.0), 0.1 mM dNTP, 10 mM MgCl2, 0.1 mg/mL BSA, 1 mM TCEP solution, and 0.02% Triton X-100. The DNA template mixture for the wild type protein contained either 100 μM dNTP, 1 μM dNTP, or 0.1 μM dNTP, designated in Table 2 as 100 μM, 1 μM, and 0.1 μM, respectfully.
Microplates with compounds (0.1 μL in each well) to be tested in the assay were prepared from 10 mM compound stocks in 100% DMSO, and equal amounts of DMSO without any compound were added to positive and negative control wells.
The protein mixture was dispensed (5 μL into each well) into compound plates and incubated at 37° C. for 15 minutes. After incubation, 5 μL of the DNA template mixture was dispensed into each well. The plates were then incubated at 37° C. for 2 hours.
During incubation, a combined stop buffer and detection reagent solution was prepared. The buffer contained 25 mM EDTA (pH 8.0), 0.02% Triton X-100, and SYBR Green I [Invitrogen] diluted 10,000× (for fluorescent readout). EDTA will stop the enzymatic reaction by chelating magnesium ions.

Going from Cc1cc(S(=O)(=O)Nc2cccc(C(=O)N(C)C(C)CO)c2)c(C)cc1Cl (single isomer, unassigned) [Example 14, 3-((4-chloro-2,5-dimethylphenyl)sulfonamido)-N-(1-hydroxypropan-2-yl)-N-methylbenzamide] to Cc1cc(S(=O)(=O)Nc2cccc(C(=O)N(C)C)c2)c(C)cc1Cl [Example 12, 3-((4-chloro-2,5-dimethylphenyl)sulfonamido)-N,N-dimethylbenzamide], the AC50 rises from 16 µM to 26 µM (1.6-fold).

Cc1ccc(C)c(S(=O)(=O)Nc2cccc(C(=O)N3CCCCC3)c2)c1 [Example 3, 2,5-dimethyl-N-(3-(piperidine-1-carbonyl)phenyl)benzene sulfonamide] and Cc1ccc(C)c(S(=O)(=O)Nc2cccc(C(=O)N3CCCC[C@@H]3C)c2)c1 [Example 6, (S)-2,5-dimethyl-N-(3-(2-methylpiperidine-1-carbonyl)phenyl)benzenesulfonamide] are within 1.5-fold of each other in AC50: 31 µM for the first, 30 µM for the second.

Cc1ccc(C)c(S(=O)(=O)Nc2cccc(C(=O)NCC3CC3)c2)c1 [Example 4, N-(cyclopropylmethyl)-3-((2,5-dimethylphenyl)sulfonamido)benzamide] and Cc1ccc(C)c(S(=O)(=O)Nc2cccc(C(=O)N[C@@H](C)C3CC3)c2)c1 [Example 8, (S)-N-(1-cyclopropylethyl)-3-((2,5-dimethylphenyl)sulfonamido)benzamide] are within 1.5-fold of each other in AC50: 33 µM for the first, 23 µM for the second.

First: Cc1ccc(C)c(S(=O)(=O)Nc2cccc(C(=O)N3CCOCC3C#N)c2)c1 (stereo not drawn) [Example 7, N-(3-(3-cyanomorpholine-4-carbonyl)phenyl)-2,5-dimethylbenzenesulfonamide]
Second: Cc1cc(S(=O)(=O)Nc2cccc(C(=O)N3CCC[C@H]3C)c2)c(C)cc1Cl [Example 10, (R)-4-chloro-2,5-dimethyl-N-(3-(2-methylpyrrolidine-1-carbonyl)phenyl)benzenesulfonamide]
The AC50 of the first is 4.3-fold higher: 13 µM for the first, 3 µM for the second.

Cc1cc(S(=O)(=O)Nc2cccc(C(=O)N3CCCC[C@H]3C)c2)c(C)cc1Cl [Example 9, (R)-4-chloro-2,5-dimethyl-N-(3-(2-methylpiperidine-1-carbonyl)phenyl)benzenesulfonamide] and Cc1cc(S(=O)(=O)Nc2cccc(-c3ccn(C)n3)c2)c(C)cc1Cl [Example 18, 4-chloro-2,5-dimethyl-N-(3-(1-methyl-1H-pyrazol-3-yl)phenyl)benzenesulfonamide] are within 1.5-fold of each other in AC50: 6 µM for the first, 8 µM for the second.

Going from Cc1cc(S(=O)(=O)Nc2cccc(C(=O)NCc3ccccc3)c2)c(C)cc1Cl [Example 11, N-benzyl-3-((4-chloro-2,5-dimethylphenyl)sulfonamido)benzamide] to CNC(=O)c1cnc(-c2cccc(NS(=O)(=O)c3cc(C)c(Cl)cc3C)c2)s1 [Example 93, 2-(3-((4-chloro-2,5-dimethylphenyl)sulfonamido)phenyl)-N-methylthiazole-5-carboxamide], the AC50 falls from 34 µM to 9 µM (3.8-fold).

First: Cc1cc(S(=O)(=O)Nc2cccc(-c3nccs3)c2)c(C)cc1Cl [Example 16, 4-chloro-2,5-dimethyl-N-(3-(thiazol-2-yl)phenyl)benzenesulfonamide]
Second: Cc1cc(S(=O)(=O)Nc2cccc(-c3ncco3)c2)c(C)cc1Cl [Example 17, 4-chloro-2,5-dimethyl-N-(3-(oxazol-2-yl)phenyl)benzenesulfonamide]
The AC50 of the first is 3-fold lower: 2 µM for the first, 6 µM for the second.

Cc1cc(S(=O)(=O)Nc2cccc(-c3nccn3C)c2)c(C)cc1Cl [Example 19, 4-chloro-2,5-dimethyl-N-(3-(1-methyl-1H-imidazol-2-yl)phenyl)benzenesulfonamide] and Cc1cc(S(=O)(=O)Nc2cccc(-c3ncc(C#N)s3)c2)c(C)cc1Cl [Example 96, 4-chloro-N-(3-(5-cyanothiazol-2-yl)phenyl)-2,5-dimethylbenzenesulfonamide] are within 1.5-fold of each other in AC50: 3 µM for the first, 4 µM for the second.

First: Cc1cc(S(=O)(=O)Nc2cccc(-c3ncc(C(N)=O)s3)c2)c(C)cc1Cl [Example 92, 2-(3-((4-chloro-2,5-dimethylphenyl)sulfonamido)phenyl) thiazole-5-carboxamide]
Second: Cc1cc(S(=O)(=O)Nc2cccc(-c3ncc(C(=O)N(C)C)s3)c2)c(C)cc1Cl [Example 94, 2-(3-((4-chloro-2,5-dimethylphenyl)sulfonamido)phenyl)-N,N-dimethylthiazole-5-carboxamide]
The AC50 of the first is lower: 1 µM for the first, greater than 100 µM for the second.

Cc1cc(S(=O)(=O)N[C@H]2CCCN(C(=O)[C@H]3CCCN3C)C2)c(C)cc1Cl [Example 95, 4-chloro-2,5-dimethyl-N-((S)-1-(methyl-D-prolyl)piperidin-3-yl)benzenesulfonamide] and Cc1cc(S(=O)(=O)N[C@@H]2CCCN(C(=O)[C@H]3CCCN3C)C2)c(C)cc1Cl [Example 100, 4-chloro-2,5-dimethyl-N-((R)-1-(methyl-D-prolyl)piperidin-3-yl)benzenesulfonamide] cannot be ordered by AC50: greater than 100 µM for the first, greater than 100 µM for the second.

First: Cc1cc(S(=O)(=O)Nc2cccc(-c3ncc(-c4nnn[nH]4)s3)c2)c(C)cc1Cl [Example 97, N-(3-(5-(1H-tetrazol-5-yl)thiazol-2-yl)phenyl)-4-chloro-2,5-dimethylbenzenesulfonamide]
Second: Cc1cnc(-c2ccc(C)c(NS(=O)(=O)c3cc(C)c(Cl)cc3C)c2)s1 [Example 98, 4-chloro-2,5-dimethyl-N-(2-methyl-5-(5-methylthiazol-2-yl)phenyl)benzenesulfonamide]
The AC50 of the first is higher: greater than 100 µM for the first, 9 µM for the second.

Cc1nc2c(NS(=O)(=O)c3cc(C)c(Cl)cc3C)cccc2s1 [Example 99, 4-chloro-2,5-dimethyl-N-(2-methylbenzo[d]thiazol-4-yl)benzenesulfonamide] and Cc1cc(S(=O)(=O)N[C@H]2CCCN(C(=O)[C@@H]3CCCN3C)C2)c(C)cc1Cl [Example 101, 4-chloro-2,5-dimethyl-N-((S)-1-(methyl-L-prolyl)piperidin-3-yl)benzenesulfonamide] cannot be ordered by AC50: greater than 100 µM for the first, greater than 100 µM for the second.

Reference: patent publication US20260138961A1, “MODULATORS OF MITOCHONDRIAL DNA REPLICATION” (Pretzel Therapeutics, Inc., priority 2022, published 2026)
